Experimental data taken from ChEMBL document CHEMBL1201862, “PubChem BioAssay data set” (2004).
Calls of active or inactive are those of the source.

Assays:
[1] = target: T1, Sentrin-specific protease 8 (Homo sapiens, UniProt Q96LD8); experiment: inhibition of human SENP8 cleavage activity – biochemical, luminescence, SAR follow-up (AID 504501); type: functional
T1 sequence (Q96LD8 whole entry): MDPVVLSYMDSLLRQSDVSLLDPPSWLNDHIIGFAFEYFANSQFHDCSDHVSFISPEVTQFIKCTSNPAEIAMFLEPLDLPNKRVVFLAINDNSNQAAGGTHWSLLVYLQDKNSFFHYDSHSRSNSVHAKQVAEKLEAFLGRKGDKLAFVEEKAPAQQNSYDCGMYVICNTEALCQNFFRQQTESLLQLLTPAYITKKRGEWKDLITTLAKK

[2] = target: T2, Sentrin-specific protease 6 (Homo sapiens, UniProt Q9GZR1); experiment: SAR Analysis of small molecule inhibitors of Sentrin-specific protease 6 (SENP6) using a Luminescent assay. [Related pubchem assays (depositor defined):AID2582, AID2599]; type: functional
T2 sequence (Q9GZR1 whole entry): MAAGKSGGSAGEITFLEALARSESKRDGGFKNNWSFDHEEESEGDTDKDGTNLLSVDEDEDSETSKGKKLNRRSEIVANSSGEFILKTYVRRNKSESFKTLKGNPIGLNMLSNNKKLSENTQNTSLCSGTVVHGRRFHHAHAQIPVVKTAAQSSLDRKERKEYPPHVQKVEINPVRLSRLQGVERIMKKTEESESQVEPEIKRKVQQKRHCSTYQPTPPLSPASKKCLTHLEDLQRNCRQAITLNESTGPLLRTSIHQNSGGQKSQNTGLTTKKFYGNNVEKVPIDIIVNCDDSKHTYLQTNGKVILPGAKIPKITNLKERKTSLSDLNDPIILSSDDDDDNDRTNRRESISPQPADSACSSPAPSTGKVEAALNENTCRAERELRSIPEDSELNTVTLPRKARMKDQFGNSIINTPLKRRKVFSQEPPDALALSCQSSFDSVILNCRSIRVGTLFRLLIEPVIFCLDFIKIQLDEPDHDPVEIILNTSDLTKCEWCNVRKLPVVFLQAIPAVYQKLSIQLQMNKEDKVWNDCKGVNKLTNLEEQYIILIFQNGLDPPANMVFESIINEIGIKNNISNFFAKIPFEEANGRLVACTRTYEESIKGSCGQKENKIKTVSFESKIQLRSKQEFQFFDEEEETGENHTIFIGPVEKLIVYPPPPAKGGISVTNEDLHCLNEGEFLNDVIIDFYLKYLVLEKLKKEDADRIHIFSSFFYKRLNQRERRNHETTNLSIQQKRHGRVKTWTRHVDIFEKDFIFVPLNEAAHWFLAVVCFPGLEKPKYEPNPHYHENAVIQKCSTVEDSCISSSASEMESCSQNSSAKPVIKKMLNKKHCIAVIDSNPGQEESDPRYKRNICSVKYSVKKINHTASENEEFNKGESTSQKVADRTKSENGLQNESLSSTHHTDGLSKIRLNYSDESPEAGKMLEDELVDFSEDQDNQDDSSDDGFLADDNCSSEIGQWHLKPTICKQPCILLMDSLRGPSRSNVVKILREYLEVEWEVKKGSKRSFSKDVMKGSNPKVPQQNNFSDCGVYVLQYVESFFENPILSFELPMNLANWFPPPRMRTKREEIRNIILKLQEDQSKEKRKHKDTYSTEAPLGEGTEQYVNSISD

[3] = target: Hepatocyte growth factor receptor (Homo sapiens, UniProt P08581); type: functional;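 further: kinase panel profiling across the kinome, with MET as the panel member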
Chain of Hepatocyte growth factor receptor (P08581 whole entry): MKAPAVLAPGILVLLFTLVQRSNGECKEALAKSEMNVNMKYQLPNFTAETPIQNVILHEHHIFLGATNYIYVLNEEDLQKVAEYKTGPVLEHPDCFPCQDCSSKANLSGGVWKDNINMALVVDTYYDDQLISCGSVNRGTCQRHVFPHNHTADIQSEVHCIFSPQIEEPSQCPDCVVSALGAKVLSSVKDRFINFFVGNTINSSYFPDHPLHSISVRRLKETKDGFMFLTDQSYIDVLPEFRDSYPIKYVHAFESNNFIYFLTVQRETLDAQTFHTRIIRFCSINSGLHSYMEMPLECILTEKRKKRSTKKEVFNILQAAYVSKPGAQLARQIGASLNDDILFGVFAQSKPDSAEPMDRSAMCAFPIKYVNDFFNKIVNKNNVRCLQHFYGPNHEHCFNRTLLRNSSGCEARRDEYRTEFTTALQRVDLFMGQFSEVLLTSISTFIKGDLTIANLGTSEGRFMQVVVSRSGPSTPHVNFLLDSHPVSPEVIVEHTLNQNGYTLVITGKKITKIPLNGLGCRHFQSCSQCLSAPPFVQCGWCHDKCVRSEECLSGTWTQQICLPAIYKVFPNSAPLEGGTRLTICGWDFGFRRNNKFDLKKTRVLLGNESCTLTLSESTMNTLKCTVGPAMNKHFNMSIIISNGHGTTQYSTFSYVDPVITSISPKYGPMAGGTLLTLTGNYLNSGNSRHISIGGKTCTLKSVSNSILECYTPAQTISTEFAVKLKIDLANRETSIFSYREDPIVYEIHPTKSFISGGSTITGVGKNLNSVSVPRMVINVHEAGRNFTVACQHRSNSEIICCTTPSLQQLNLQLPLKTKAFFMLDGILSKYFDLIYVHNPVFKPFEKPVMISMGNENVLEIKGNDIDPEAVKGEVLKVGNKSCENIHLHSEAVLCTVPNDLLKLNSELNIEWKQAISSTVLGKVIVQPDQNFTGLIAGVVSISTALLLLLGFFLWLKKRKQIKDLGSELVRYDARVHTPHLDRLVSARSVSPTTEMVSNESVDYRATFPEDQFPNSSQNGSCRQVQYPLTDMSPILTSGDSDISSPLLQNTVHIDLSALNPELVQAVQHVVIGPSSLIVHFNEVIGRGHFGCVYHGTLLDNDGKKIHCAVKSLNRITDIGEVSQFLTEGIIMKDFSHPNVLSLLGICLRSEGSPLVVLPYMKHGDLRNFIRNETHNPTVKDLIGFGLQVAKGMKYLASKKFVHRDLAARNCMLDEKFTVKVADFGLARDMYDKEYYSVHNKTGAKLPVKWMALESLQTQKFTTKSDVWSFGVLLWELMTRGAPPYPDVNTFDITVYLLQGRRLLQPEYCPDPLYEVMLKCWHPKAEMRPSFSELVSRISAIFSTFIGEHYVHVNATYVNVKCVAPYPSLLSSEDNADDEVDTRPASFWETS

[4] = target: Macrophage-stimulating protein receptor (Homo sapiens, UniProt Q04912); experiment: Navigating the Kinome. Panel member name: MST1R; type: functional
[5] = target: Dual specificity mitogen-activated protein kinase kinase 2 (Homo sapiens, UniProt P36507); experiment: Navigating the Kinome. Panel member name: MAP2K2; type: functional
[6] = target: cAMP-dependent protein kinase catalytic subunit alpha (Homo sapiens, UniProt P17612); type: functional
[7] = target: Ribosomal protein S6 kinase alpha-3 (Homo sapiens, UniProt P51812); type: functional;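 further: measured within a kinome-wide profiling panel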
Aurora kinase B = Aurora kinase B (Homo sapiens, UniProt Q96GD4); type: functional
[8] = target: Tyrosine-protein kinase receptor TYRO3 (Homo sapiens, UniProt Q06418); type: functional;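 further: TYRO3 value obtained as one member of a kinome-wide profiling panel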
[9] = target: Tyrosine-protein kinase JAK2 (Homo sapiens, UniProt O60674); type: functional;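 further: JAK2 tested as one member of a kinase panel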
[10] = target: Tyrosine-protein kinase Fyn (Homo sapiens, UniProt P06241); type: functional
Chain of Tyrosine-protein kinase Fyn (P06241 whole entry): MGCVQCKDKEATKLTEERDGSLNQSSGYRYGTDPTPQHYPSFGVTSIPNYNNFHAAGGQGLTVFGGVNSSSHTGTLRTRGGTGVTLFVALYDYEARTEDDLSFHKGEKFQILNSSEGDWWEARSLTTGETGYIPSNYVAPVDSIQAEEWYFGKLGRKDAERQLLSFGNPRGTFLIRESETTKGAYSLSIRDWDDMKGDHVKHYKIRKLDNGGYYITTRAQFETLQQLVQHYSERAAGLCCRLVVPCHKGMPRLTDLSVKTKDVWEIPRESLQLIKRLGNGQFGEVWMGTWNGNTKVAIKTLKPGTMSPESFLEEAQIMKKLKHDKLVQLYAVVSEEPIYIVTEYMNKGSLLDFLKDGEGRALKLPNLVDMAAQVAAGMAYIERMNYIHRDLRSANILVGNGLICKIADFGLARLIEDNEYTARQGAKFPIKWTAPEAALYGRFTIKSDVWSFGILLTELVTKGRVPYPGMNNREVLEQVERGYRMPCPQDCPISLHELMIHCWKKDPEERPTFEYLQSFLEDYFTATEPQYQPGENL

[11] = target: Macrophage colony-stimulating factor 1 receptor (Homo sapiens, UniProt P07333); type: functional;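 further: value comes from the Navigating the Kinome screening panel, CSF1R member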
[12] = target: G protein-coupled receptor kinase 5 (Homo sapiens, UniProt P34947); experiment: Navigating the Kinome. Panel member name: GPRK5; type: functional
Chain of G protein-coupled receptor kinase 5 (P34947 whole entry): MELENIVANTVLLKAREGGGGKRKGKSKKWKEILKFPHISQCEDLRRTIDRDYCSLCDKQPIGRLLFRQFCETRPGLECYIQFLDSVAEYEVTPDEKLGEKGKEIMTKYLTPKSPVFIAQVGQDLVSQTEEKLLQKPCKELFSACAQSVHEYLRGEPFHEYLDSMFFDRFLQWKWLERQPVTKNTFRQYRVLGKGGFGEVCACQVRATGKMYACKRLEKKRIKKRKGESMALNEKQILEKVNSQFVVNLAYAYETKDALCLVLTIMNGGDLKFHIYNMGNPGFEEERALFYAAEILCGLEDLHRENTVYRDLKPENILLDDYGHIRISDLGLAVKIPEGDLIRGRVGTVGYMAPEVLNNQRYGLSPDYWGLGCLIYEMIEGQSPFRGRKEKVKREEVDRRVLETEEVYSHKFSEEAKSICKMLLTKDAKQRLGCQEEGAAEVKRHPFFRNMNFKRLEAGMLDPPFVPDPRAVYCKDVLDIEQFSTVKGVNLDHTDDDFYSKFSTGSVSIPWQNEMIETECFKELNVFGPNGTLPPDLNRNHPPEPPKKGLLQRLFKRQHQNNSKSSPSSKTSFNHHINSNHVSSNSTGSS

[13] = target: Serine/threonine-protein kinase Nek2 (Homo sapiens, UniProt P51955); type: functional
Chain of Serine/threonine-protein kinase Nek2 (P51955 whole entry): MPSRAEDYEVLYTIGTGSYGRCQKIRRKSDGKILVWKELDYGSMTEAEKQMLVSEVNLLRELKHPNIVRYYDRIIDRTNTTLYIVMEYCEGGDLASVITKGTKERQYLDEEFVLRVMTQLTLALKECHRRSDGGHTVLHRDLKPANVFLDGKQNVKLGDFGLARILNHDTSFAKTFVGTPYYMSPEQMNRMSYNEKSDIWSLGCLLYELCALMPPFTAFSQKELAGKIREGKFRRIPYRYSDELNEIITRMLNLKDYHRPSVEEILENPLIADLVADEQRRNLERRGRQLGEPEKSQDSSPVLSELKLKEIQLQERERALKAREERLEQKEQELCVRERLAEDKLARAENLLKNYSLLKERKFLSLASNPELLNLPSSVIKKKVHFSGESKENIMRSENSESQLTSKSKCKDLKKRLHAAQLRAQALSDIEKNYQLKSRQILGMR

[14] = target: Cyclin-dependent kinase 7 (Homo sapiens, UniProt P50613); type: functional;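 further: value comes from a kinome-wide kinase profiling panel in which CDK7 is one member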
[15] = target: Serine/threonine-protein kinase pim-1 (Homo sapiens, UniProt P11309); type: functional
Chain of Serine/threonine-protein kinase pim-1 (P11309 whole entry, canonical isoform): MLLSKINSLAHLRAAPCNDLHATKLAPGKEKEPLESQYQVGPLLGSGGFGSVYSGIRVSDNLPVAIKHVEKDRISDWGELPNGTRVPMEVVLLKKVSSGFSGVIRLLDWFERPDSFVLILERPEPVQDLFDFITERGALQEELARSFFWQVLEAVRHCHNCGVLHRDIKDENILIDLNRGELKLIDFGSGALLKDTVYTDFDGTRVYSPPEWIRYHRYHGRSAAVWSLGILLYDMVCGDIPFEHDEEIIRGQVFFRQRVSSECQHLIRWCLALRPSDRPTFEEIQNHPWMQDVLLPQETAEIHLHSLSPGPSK

[16] = target: Casein kinase I isoform alpha (Homo sapiens, UniProt P48729); type: functional
[17] = target: Rho-associated protein kinase 1 (Homo sapiens, UniProt Q13464); type: functional;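 further: measured within a broad kinome-wide panel profiling many kinases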
Chain of Rho-associated protein kinase 1 (Q13464 whole entry): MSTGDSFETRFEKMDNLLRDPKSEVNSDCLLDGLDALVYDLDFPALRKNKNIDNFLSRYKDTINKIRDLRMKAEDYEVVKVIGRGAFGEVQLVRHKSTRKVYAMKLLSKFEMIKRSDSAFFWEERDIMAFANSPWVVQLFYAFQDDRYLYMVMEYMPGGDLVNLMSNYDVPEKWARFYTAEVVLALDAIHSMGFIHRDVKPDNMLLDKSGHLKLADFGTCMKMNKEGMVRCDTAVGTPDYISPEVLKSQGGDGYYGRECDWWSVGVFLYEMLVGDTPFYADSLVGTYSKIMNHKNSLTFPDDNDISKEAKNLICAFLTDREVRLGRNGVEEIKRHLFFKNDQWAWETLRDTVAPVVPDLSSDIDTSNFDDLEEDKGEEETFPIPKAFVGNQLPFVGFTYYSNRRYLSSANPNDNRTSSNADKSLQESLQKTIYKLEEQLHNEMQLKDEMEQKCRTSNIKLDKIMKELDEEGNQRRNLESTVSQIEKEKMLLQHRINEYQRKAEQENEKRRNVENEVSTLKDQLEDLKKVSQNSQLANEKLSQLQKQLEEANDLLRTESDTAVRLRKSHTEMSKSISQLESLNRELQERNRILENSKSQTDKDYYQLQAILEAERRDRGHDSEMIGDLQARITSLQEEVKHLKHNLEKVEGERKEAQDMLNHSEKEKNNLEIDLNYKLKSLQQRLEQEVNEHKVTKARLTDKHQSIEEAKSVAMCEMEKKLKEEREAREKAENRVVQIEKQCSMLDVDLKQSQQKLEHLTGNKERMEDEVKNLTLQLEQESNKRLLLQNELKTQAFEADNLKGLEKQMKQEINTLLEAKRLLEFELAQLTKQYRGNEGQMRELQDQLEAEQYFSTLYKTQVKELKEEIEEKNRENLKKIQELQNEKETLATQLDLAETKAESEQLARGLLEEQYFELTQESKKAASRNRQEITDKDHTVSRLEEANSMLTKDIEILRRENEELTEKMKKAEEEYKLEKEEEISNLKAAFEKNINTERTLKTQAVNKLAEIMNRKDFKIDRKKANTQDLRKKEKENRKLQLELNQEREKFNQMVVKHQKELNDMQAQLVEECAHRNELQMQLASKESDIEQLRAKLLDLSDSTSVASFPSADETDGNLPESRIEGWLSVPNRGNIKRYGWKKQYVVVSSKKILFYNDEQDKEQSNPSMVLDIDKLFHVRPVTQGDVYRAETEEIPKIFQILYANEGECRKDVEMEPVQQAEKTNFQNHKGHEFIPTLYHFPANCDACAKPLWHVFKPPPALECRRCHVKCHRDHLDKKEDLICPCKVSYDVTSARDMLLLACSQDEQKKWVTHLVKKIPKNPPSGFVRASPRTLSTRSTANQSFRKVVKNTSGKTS

[18] = target: Vascular endothelial growth factor receptor 1 (Homo sapiens, UniProt P17948); type: functional;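 further: measured within a kinome-wide profiling panel, FLT1 as the panel member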
[19] = target: C-C chemokine receptor type 6 (Homo sapiens, UniProt P51684); experiment: antagonism of CCR6 beta-arrestin recruitment – cell-based, luminescent beta-arrestin readout, dose response (AID 504728); type: functional
Chain of C-C chemokine receptor type 6 (P51684 whole entry): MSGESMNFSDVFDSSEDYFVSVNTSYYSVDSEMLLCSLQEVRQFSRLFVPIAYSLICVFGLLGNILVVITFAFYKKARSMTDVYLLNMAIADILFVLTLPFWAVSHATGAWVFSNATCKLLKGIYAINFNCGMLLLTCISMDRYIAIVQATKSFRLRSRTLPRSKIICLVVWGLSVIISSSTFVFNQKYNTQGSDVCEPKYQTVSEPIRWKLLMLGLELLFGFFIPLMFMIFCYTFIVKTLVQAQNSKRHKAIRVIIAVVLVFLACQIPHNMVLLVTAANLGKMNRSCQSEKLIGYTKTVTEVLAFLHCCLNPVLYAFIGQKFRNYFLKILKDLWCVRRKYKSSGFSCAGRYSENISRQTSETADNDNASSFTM

[20] = alpha-synuclein stem-loop luciferase translation blockers – H4 neuroglioma cells, luminescence, confirmation (AID 1988); type: functional, cell-based
[21] = cAMP pathway inhibition in counterscreen cell line – TR-FRET cAMP detection, counter-screen for MC4R biased antagonist project, dose response (AID 602305); type: functional, cell-based;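 further: U2OS cells stimulated with forskolin near its EC80 as the cAMP inducer; potency is for inhibition of forskolin-stimulated cAMP signaling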

Cc1ccc(NC(=O)COc2cccc(/C=C3\SC(=S)N(CCC(=O)O)C3=O)c2)cc1Cl
active: IC50 [2] 5.06 µM
inactive: IC50 [1] > 99 µM

COc1cccc(C(C)NC(=O)c2ccc(-c3ccncc3)s2)c1 (configuration not stated)
inactive: Ki [3] > 2.51 µM | Ki [4] > 3.98 µM | Ki [5] > 3.98 µM | Ki [8] > 3.16 µM | Ki [9] > 2.51 µM | Ki [10] > 6.31 µM | Ki [11] > 2.51 µM | Ki [13] > 3.16 µM | Ki [14] > 3.98 µM | Ki [15] > 6.31 µM | Ki [18] > 3.98 µM
active: Ki [6] 0.0794 µM | Ki [7] 1.58 µM | Ki (Aurora kinase B) 0.398 µM | Ki [12] 1 µM | Ki [16] 1.58 µM | Ki [17] 0.00126 µM

O=Nc1c(-c2c(O)[nH]c3cc(Br)ccc23)[nH]c2ccccc12
inactive: IC50 [19] > 66.6 µM | IC50 [21] > 64.6 µM
active: EC50 [20] 9.31 µM
